Results: patent US9828350B2, “5,6-dihydro-2H-[1,4]oxazin-3-yl-amine derivatives useful as inhibitors of beta-secretase (BACE)” (Janssen Pharmaceutica NV, priority 2010, dated 2017)

Columns and labels:
[1] = tested on: Abeta 1-42; assay: Cellular αLisa assay in SKNBE2 cells, Abeta 1-42; format: cell-based, human; conditions: incubated for 18 hours; for IC50: Homo sapiens, SKNBE2, 18 h, read-out: Cellular αLisa assay in SKNBE2 cells Abeta 42 pIC50 (converted)
In short: (§1)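 Human neuroblastoma SKNBE2 cells expressing wild-type hAPP695 were incubated with compound for 18 hours. Secreted Abeta total and Abeta 1-42 in medium were quantified by sandwich αLisa: biotinylated AbN/25 on streptavidin donor beads with Ab4G8 (total) or cAb42/26 (1-42) acceptor beads. Light emission read after 1 hour (ex 650 nm, em 615 nm).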

[2] = biological target: recombinant BACE1 protein (Homo sapiens, UniProt P56817); assay: Biochemical FRET based assay; conditions: recombinant BACE1 1 μg/ml, 120 minutes at room temperature, pH 5.0; for IC50: read-out: Biochemical FRET based assay pIC50 (converted)
Sequence of recombinant BACE1 protein (P56817 46-501): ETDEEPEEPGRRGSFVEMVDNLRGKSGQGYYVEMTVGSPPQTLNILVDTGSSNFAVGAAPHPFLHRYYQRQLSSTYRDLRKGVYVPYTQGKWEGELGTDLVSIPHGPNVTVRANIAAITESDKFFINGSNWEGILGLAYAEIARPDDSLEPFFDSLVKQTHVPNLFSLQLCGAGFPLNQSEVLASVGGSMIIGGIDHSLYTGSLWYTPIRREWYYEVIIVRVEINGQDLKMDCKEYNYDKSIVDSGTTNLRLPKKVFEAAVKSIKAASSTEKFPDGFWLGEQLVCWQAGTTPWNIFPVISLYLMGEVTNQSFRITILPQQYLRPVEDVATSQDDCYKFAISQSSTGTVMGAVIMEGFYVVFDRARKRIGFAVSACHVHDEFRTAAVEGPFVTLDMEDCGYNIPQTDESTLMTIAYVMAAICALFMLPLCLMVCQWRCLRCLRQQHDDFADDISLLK
In short: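 Recombinant BACE1 (1 μg/ml final) was incubated 120 minutes at room temperature with […] Mca/Dnp-labelled 13-mer APP Swedish-mutant peptide in 40 mM citrate pH 5.0, 0.04% PEG, 4% DMSO, with or without compound. Cleavage was measured as fluorescence (ex 320/em 405 nm), given as RFU difference between T120 and T0.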

[3] = tested on: Abeta total; assay: Cellular αLisa assay in SKNBE2 cells, Abeta total; format: cell-based, human; conditions: incubated for 18 hours; for IC50: Homo sapiens, SKNBE2, 18 h, read-out: Cellular αLisa assay in SKNBE2 cells Abetatotal pIC50 (converted)
In short: as §1

SMILES	Cellular αLisa assay in SKNBE2 cells Abeta 42 pIC50 [1]	Biochemical FRET based assay pIC50 [2]	Cellular αLisa assay in SKNBE2 cells Abetatotal pIC50 [3]	IC50 [1] [nM]	IC50 [2] [nM]	IC50 [3] [nM]
C[C@@]1(c2cc(-c3cc(Cl)cc(Cl)c3)c(F)cc2F)COCC(N)=N1 [Compound 48]	6.19	5.73	6.22	–	–	–
C[C@@]1(c2cccc(-c3cccc(C#N)c3)c2)COCC(N)=N1 [Compound 51]	6.61	5.41	6.59	–	–	–
C[C@@]1(c2cc(NC(=O)c3ccc(Cl)cc3F)ccc2F)COCC(N)=N1.Cl [Compound 68]	7.06	6.35	7.04	–	–	–
C[C@@]1(c2cccc(NC(=O)c3ccc(Cl)cn3)c2)COC2(CC2)C(N)=N1 [Compound 73]	–	–	–	4.9	102	4.27
C[C@@]1(c2cccc(-c3cncnc3)c2)COC2(CC2)C(N)=N1 [Compound 74]	–	–	–	195	4170	204
CC1(c2cc(NC(=O)c3ncc(Cl)cc3F)ccc2F)N=C(N)COC1F (stereo not drawn) [Compound 77]	–	–	–	12	52.5	11.7
CC1(c2cc(NC(=O)c3ncc(Cl)cc3Cl)ccc2F)N=C(N)COC1F (stereo not drawn) [Compound 78]	–	–	–	11.7	55	8.51
COc1cnc(C(=O)Nc2cccc(C3(C)N=C(N)COC3F)c2)cn1 (stereo not drawn) [Compound 80]	–	–	–	60.3	97.7	53.7
COc1cncc(-c2cccc(C3(C)N=C(N)COC3C(F)(F)F)c2)c1 (stereo not drawn) [Compound 108]	–	–	–	120	1290	120
Cc1cc(Cl)cnc1C(=O)Nc1ccc(F)c([C@]2(C)COCC(N)=N2)c1 [Compound 143]	8.35	7.48	8.36	–	–	–
CC1(c2cc(NC(=O)c3ncc(Cl)cn3)ccc2F)COCC(N)=N1 (stereo not drawn) [Compound 144]	7.27	7.11	7.38	–	–	–
COc1cccc(-c2cc([C@]3(C)COCC(N)=N3)c(F)cc2F)n1.Cl [Compound 145]	5.45	4.67	5.55	–	–	–
CC1(c2cccc(NC(=O)c3cnc(C(F)(F)F)cn3)c2)COCC(N)=N1 (stereo not drawn) [Compound 146]	7.07	6.26	7.03	–	–	–
CC1(c2cc(NC(=O)c3cnc(C(F)(F)F)cn3)ccc2F)COCC(N)=N1 (stereo not drawn) [Compound 147]	7.59	6.7	7.6	–	–	–
C[C@@]1(c2cc(-c3cncnc3)c(F)cc2F)COC2(CC2)C(N)=N1 [Compound 150]	–	–	–	200	1100	200
C[C@]1(c2cc(-c3cncnc3)c(F)cc2F)COCC(N)=N1 [Compound 155]	<5	<4.52	<5	–	–	–
C[C@]1(c2cc(NC(=O)c3ccncn3)ccc2F)N=C(N)CO[C@H]1C(F)(F)F [Compound 168]	–	–	–	79.4	832	74.1
CC1(c2cccc(-c3cncc(C#N)c3)c2)N=C(N)COC1C(F)(F)F (stereo not drawn) [Compound 171]	–	–	–	135	1120	129
COc1cnc(C(=O)Nc2ccc(F)c([C@@]3(C)N=C(N)CO[C@@]3(F)C(F)(F)F)c2)cn1 [Compound 180]	–	–	–	33.9	44.7	28.2
C[C@]1(c2cc(NC(=O)c3ccncn3)ccc2F)N=C(N)CO[C@@]1(F)C(F)(F)F [Compound 182]	–	–	–	209	550	204
N#Cc1ccc(C(=O)Nc2cccc(C3(C4CC4)N=C(N)COC3(F)C(F)(F)F)c2)nc1 (stereo not drawn) [Compound 198]	6.7	6.52	6.69	–	–	–
COc1cnc(C(=O)Nc2cccc([C@@]3(C4CC4)N=C(N)CO[C@]3(F)C(F)(F)F)c2)cn1 [Compound 202]	–	–	–	537	479	537
COc1cnc(C(=O)Nc2cccc([C@@]3(C4CC4)N=C(N)CO[C@@]3(F)C(F)(F)F)c2)cn1 [Compound 203]	–	–	–	37.2	20.4	37.2
N#Cc1ccc(C(=O)Nc2ccc(F)c([C@@]3(C4CC4)N=C(N)CO[C@@H]3F)c2)nc1 [Compound 214, (2R,3R)—N-[3-(5-amino-3-cyclopropyl-2-fluoro-3,6-dihydro-2H-1,4-oxazin-3-yl)-4-fluorophenyl]-5-cyanopyridine-2-carboxamide]	–	–	–	794	110	708
N#Cc1ccc(C(=O)Nc2ccc(F)c(C3(C4CC4)N=C(N)COC3F)c2)nc1 (stereo not drawn) [Compound 215]	6.51	6.3	6.52	–	–	–

Further lines, results first:

Cellular αLisa assay in SKNBE2 cells Abeta 42 pIC50 [1]	Biochemical FRET based assay pIC50 [2]	Cellular αLisa assay in SKNBE2 cells Abetatotal pIC50 [3]	IC50 [1] [nM]	IC50 [2] [nM]	IC50 [3] [nM]	SMILES
–	–	–	355	468	347	NC1=N[C@@](c2cc(NC(=O)c3ncc(Cl)cc3F)ccc2F)(C2CC2)[C@H](F)OC1 [Compound 220]
–	–	–	> 10000	24500	> 10000	N#Cc1cncc(-c2ccc(F)c([C@@]3(C4CC4)N=C(N)CO[C@H]3F)c2)c1 [Compound 223]
–	–	–	> 10000	14800	> 10000	NC1=N[C@@](c2cc(-c3cncnc3)ccc2F)(C2CC2)[C@H](F)OC1 [Compound 224, (5R,6S)-5-cyclopropyl-6-fluoro-5-(2-fluoro-5-pyrimidin-5-ylphenyl)-5,6-dihydro-2H-1,4-oxazin-3-amine]
–	–	–	6.31	35.5	6.61	N#Cc1ccc(C(=O)Nc2cccc([C@@]3(C4CC4)N=C(N)CO[C@H]3C(F)(F)F)c2)nc1 [Compound 225, (2R,3R)—N-{3-[5-amino-3-cyclopropyl-2-(trifluoromethyl)-3,6-dihydro-2H-1,4-oxazin-3-yl]phenyl}-5-cyanopyridine-2-carboxamide]
7.41	6.86	7.47	–	–	–	N#Cc1ccc(C(=O)Nc2cccc(C3(C4CC4)N=C(N)COC3C(F)(F)F)c2)nc1 (stereo not drawn) [Compound 226]
–	–	–	13.8	45.7	13.5	COc1cnc(C(=O)Nc2ccc(F)c([C@@]3(C4CC4)N=C(N)CO[C@H]3C(F)(F)F)c2)cn1 [Compound 230]
–	–	–	12.3	33.9	11.7	COc1ccc(C(=O)Nc2ccc(F)c([C@@]3(C4CC4)N=C(N)CO[C@H]3C(F)(F)F)c2)nc1 [Compound 231]
–	–	–	12	31.6	12.9	NC1=N[C@@](c2cc(NC(=O)c3ccc(Cl)cn3)ccc2F)(C2CC2)[C@H](C(F)(F)F)OC1 [Compound 233]
–	–	–	11.5	25.1	10.2	NC1=N[C@@](c2cc(NC(=O)c3ncc(Cl)cc3Cl)ccc2F)(C2CC2)[C@H](C(F)(F)F)OC1 [Compound 234]
–	–	–	14.5	33.1	14.1	N#Cc1cnc(C(=O)Nc2ccc(F)c([C@@]3(C4CC4)N=C(N)CO[C@H]3C(F)(F)F)c2)c(Cl)c1 [Compound 235]
–	–	–	224	1050	224	CC1(c2cc(-c3cncc(C#N)c3)ccc2F)N=C(N)COC1C(F)(F)F (stereo not drawn) [Compound 239]
–	–	–	10.5	25.7	10.2	C[C@]1(c2cccc(NC(=O)c3ccc(C#N)cn3)c2)N=C(N)CO[C@]1(F)C(F)(F)F [Compound 240]
–	–	–	126	324	120	C[C@]1(c2cccc(NC(=O)c3ccc(C#N)cn3)c2)N=C(N)CO[C@@]1(F)C(F)(F)F [Compound 241]
–	–	–	12.3	20.4	12.3	C[C@]1(c2cccc(NC(=O)c3ncc(Cl)cc3Cl)c2)N=C(N)CO[C@]1(F)C(F)(F)F [Compound 242]
–	–	–	240	263	263	C[C@]1(c2cccc(NC(=O)c3ncc(Cl)cc3Cl)c2)N=C(N)CO[C@@]1(F)C(F)(F)F [Compound 243]
–	–	–	6.61	21.9	5.89	C[C@]1(c2cccc(NC(=O)c3ncc(C#N)cc3Cl)c2)N=C(N)CO[C@]1(F)C(F)(F)F [Compound 245]
–	–	–	120	316	102	C[C@]1(c2cccc(NC(=O)c3ncc(C#N)cc3Cl)c2)N=C(N)CO[C@@]1(F)C(F)(F)F [Compound 246]
–	–	–	89.1	219	81.3	NC1=N[C@@](c2cccc(NC(=O)c3ncc(Cl)cc3F)c2)(C2CC2)[C@H](F)OC1 [Compound 249, (2S,3R)—N-[3-(5-amino-3-cyclopropyl-2-fluoro-3,6-dihydro-2H-1,4-oxazin-3-yl)phenyl]-5-chloro-3-fluoropyridine-2-carboxamide]
